# Measurements reported in US6274715A, “Tricyclic erythromycin derivatives” (priority 1997, dated 2001).
# Tests used:
# Assay type in all cases: cell-based
# [1] = test system: STAPHYLOCOCCUS AUREUS ATCC 6538P; assay: In vitro antibacterial activity, MIC, BHI agar dilution; conditions: S. aureus ATCC 6538P, 35-37° C., 20 to 24 hours, unit assumed
# [2] = test system: STAPHYLOCOCCUS AUREUS A5177; assay: as above; conditions: S. aureus A5177, unit assumed
# [3] = test system: STAPHYLOCOCCUS AUREUS A-5278; assay: as above
# [4] = test system: STAPHYLOCOCCUS AUREUS CMX 642A; assay: as above; conditions: S. aureus CMX 642A, unit assumed
# [5] = test system: STAPHYLOCOCCUS AUREUS NCTC10649M; assay: as above; conditions: S. aureus NCTC10649M, unit assumed
# [6] = test system: STAPHYLOCOCCUS AUREUS CMX 553; assay: as above; conditions: S. aureus CMX 553, unit assumed
# [7] = test system: STAPHYLOCOCCUS AUREUS 1775; assay: as above; conditions: S. aureus 1775, unit assumed
# [8] = test system: STAPHYLOCOCCUS EPIDERMIDIS 3519; conditions: S. epidermidis 3519; BHI agar; unit assumed
# EN[…] ATCC 8043 = assay: In vitro antibacterial activity, MIC, BHI agar dilution; conditions: E. faecium ATCC 8043, unit assumed
# Procedure, shortened: (§1)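 Agar dilution in BHI: plates inoculated with 1:100 dilutions of organisms (1:10 for Micrococcus and Streptococcus), incubated 20-24 h at 35-37° C, then inspected for the lowest inhibitory concentration against a drug-free growth control.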
# M[…] ATCC 4698 = assay: as above
# Procedure, shortened: as §1
# M[…] ATCC 9341 = assay: as above; conditions: M. luteus ATCC 9341, unit assumed
# Procedure, shortened: as §1
# STR[…] 508 = assay: as above; conditions: S. agalactiae CMX 508, unit assumed
# Procedure, shortened: as §1
# [9] = test system: STREPTOCOCCUS BOVIS A-5169; assay: as above
# [10] = test system: STREPTOCOCCUS PYOGENES EES61; assay: as above
# [11] = test system: STREPTOCOCCUS PYOGENES 930; assay: as above; conditions: S. pyogenes 930, unit assumed
# [12] = test system: STREPTOCOCCUS PYOGENES PIU 2548; assay: as above; conditions: S. pyogenes PIU 2548, unit assumed
# ESCHERICHIA COLI JUHL = conditions: E. coli JUHL; BHI agar; unit assumed
# ESCHERICHIA COLI SS = assay: In vitro antibacterial activity, MIC, BHI agar dilution; conditions: E. coli SS
# ESCHERICHIA COLI DC-2 = assay: as above; conditions: E. coli DC-2, unit assumed
# ESCHERICHIA COLI H560 = assay: as above; conditions: E. coli H560, unit assumed
# ESCHERICHIA COLI KNK 437 = conditions: E. coli KNK 437; BHI agar; unit assumed
# [13] = test system: ENTEROBACTER AEROGENES ATCC 13048; assay: In vitro antibacterial activity, MIC, BHI agar dilution; conditions: E. aerogenes ATCC 13048, unit assumed
# [14] = test system: KLEBSIELLA PNEUMONIAE ATCC 8045; assay: as above; conditions: K. pneumoniae ATCC 8045, unit assumed
# [15] = test system: PROVIDENCIA STUARTII CMX 640; conditions: P. stuartii CMX 640; BHI agar; unit assumed
# [16] = test system: PSEUDOMONAS AERUGINOSA BMH10; assay: In vitro antibacterial activity, MIC, BHI agar dilution; conditions: P. aeruginosa BMH10, unit assumed
# [17] = test system: PSEUDOMONAS AERUGINOSA 5007; assay: as above; conditions: P. aeruginosa 5007, unit assumed
# [18] = test system: PSEUDOMONAS AERUGINOSA K799/WT; assay: as above; conditions: P. aeruginosa K799/WT, unit assumed
# [19] = test system: PSEUDOMONAS AERUGINOSA K799/61; assay: as above; conditions: P. aeruginosa K799/61, unit assumed
# PSEUDOMONAS CEPACIA 296I = assay: as above; conditions: P. cepacia 296I, unit assumed
# [20] = test system: ACINETOBACTER CALCOACETICUS CMX 669; assay: as above; conditions: A. calcoaceticus CMX 669, unit assumed
# [21] = test system: PSEUDOMONAS AERUGINOSA DPHD-5263; assay: as above; conditions: P. aeruginosa DPHD-5263, unit assumed
# [22] = test system: PSEUDOMONAS AERUGINOSA DPHD-2862; assay: as above; conditions: P. aeruginosa DPHD-2862, unit assumed
# CANDIDA ALBICANS CCH 442 = assay: as above; conditions: C. albicans CCH 442, unit assumed
# [23] = test system: MYCOBACTERIUM SMEGMATIS ATCC 114; assay: as above; conditions: M. smegmatis ATCC 114, unit assumed
# [24] = M. luteus ATCC 4698, unit assumed
# [25] = S. pyogenes EES61, unit assumed
SMILES,MIC [1] [µg/mL],MIC [2] [µg/mL],MIC [4] [µg/mL],MIC [5] [µg/mL],MIC [6] [µg/mL],MIC [7] [µg/mL],MIC [8] [µg/mL],MIC (EN[…] ATCC 8043) [µg/mL],MIC (M[…] ATCC 9341) [µg/mL],MIC [11] [µg/mL],MIC [12] [µg/mL],MIC (ESCHERICHIA COLI JUHL) [µg/mL],MIC (ESCHERICHIA COLI DC-2) [µg/mL],MIC (ESCHERICHIA COLI H560) [µg/mL],MIC (ESCHERICHIA COLI KNK 437) [µg/mL],MIC [13] [µg/mL],MIC [14] [µg/mL],MIC [15] [µg/mL],MIC [16] [µg/mL],MIC [17] [µg/mL],further results
CC[C@H]1OC(=O)[C@H](C)C(=O)[C@H](C)[C@@H](O[C@@H]2O[C@H](C)C[C@H](N(C)C)[C@H]2O)[C@](C)(OC)C[C@@H](C)C2=N[C@@H]3CCC[C@@H]3N3C(=O)O[C@@]1(C)[C@H]3[C@H]2C [Example 17],0.78,0.78,0.78,0.78,0.78,> 100,0.78,0.2,0.1,> 100,0.39,> 100,> 100,100,> 100,> 100,> 100,> 100,> 100,> 100,"MIC ([3]; S. aureus A-5278, unit assumed): > 100 µg/mL; MIC (M[…] ATCC 4698; [24]): 0.78 µg/mL; MIC (STR[…] 508): 0.05 µg/mL; MIC ([9]; S. bovis A-5169, unit assumed): 0.02 µg/mL; MIC [10, 25]: 0.05 µg/mL; MIC (ESCHERICHIA COLI SS; unit assumed): 0.78 µg/mL; MIC [18]: > 100 µg/mL; MIC [19]: 12.5 µg/mL; MIC (PSEUDOMONAS CEPACIA 296I): > 100 µg/mL; MIC [20]: 100 µg/mL; MIC [21]: > 100 µg/mL; MIC [22]: > 100 µg/mL; MIC (CANDIDA ALBICANS CCH 442): > 100 µg/mL; MIC [23]: 12.5 µg/mL"
CC[C@H]1OC(=O)[C@H](C)C(=O)[C@H](C)[C@@H](O[C@@H]2O[C@H](C)C[C@H](N(C)C)[C@H]2O)[C@](C)(OC)C[C@@H](C)C2=NC3CN(CCOc4ccccc4)CC3N3C(=O)O[C@@]1(C)[C@H]3[C@H]2C (stereo partly shown) [Example 128],0.39,0.39,0.39,0.39,0.39,> 100,0.39,0.1,0.05,> 100,0.78,100,> 100,> 100,> 100,> 100,> 100,> 100,> 100,> 100,"MIC ([3]; S. aureus A-5278, unit assumed): > 100 µg/mL; MIC (M[…] ATCC 4698; [24]): 0.39 µg/mL; MIC ([9]; S. bovis A-5169, unit assumed): ≤ 0.005 µg/mL; MIC [10, 25]: ≤ 0.005 µg/mL; MIC (ESCHERICHIA COLI SS; unit assumed): 1.56 µg/mL; MIC [18]: > 100 µg/mL; MIC [19]: 6.2 µg/mL; MIC (PSEUDOMONAS CEPACIA 296I): > 100 µg/mL; MIC [20]: 100 µg/mL; MIC [21]: > 100 µg/mL; MIC [22]: > 100 µg/mL; MIC (CANDIDA ALBICANS CCH 442): > 100 µg/mL; MIC [23]: 1.56 µg/mL"
CC[C@H]1OC(=O)[C@H](C)C(=O)[C@H](C)[C@@H](O[C@@H]2O[C@H](C)C[C@H](N(C)C)[C@H]2O)[C@](C)(OC)C[C@@H](C)C2=NC(COCc3ccc(Cl)cc3)C(COCc3ccc(Cl)cc3)N3C(=O)O[C@@]1(C)[C@H]3[C@H]2C (stereo partly shown) [Example 147],1.56,1.56,1.56,1.56,1.56,12.5,1.56,0.78,0.39,3.1,3.1,> 100,> 100,> 100,> 100,> 100,> 100,> 100,> 100,> 100,"MIC ([3]; S. aureus A-5278, listed as Ex 147, unit assumed): 6.2 µg/mL; MIC (M[…] ATCC 4698; M. luteus ATCC 4698, listed as Ex 147, unit assumed): 3.1 µg/mL; MIC (STR[…] 508): 0.78 µg/mL; MIC ([9]; S. bovis A-5169, listed as Ex 147, unit assumed): 0.39 µg/mL; MIC ([10]; S. pyogenes EES61, listed as Ex 147, unit assumed): 0.78 µg/mL; MIC (ESCHERICHIA COLI SS; listed as Ex 147, unit assumed): > 100 µg/mL; MIC [18]: > 100 µg/mL; MIC (PSEUDOMONAS CEPACIA 296I): > 100 µg/mL; MIC [20]: > 100 µg/mL; MIC [21]: > 100 µg/mL; MIC [22]: > 100 µg/mL; MIC (CANDIDA ALBICANS CCH 442): 50 µg/mL; MIC [23]: 1.56 µg/mL"
